Laboratory results reported in ChEMBL document CHEMBL1201862, “PubChem BioAssay data set” (2004).
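Briefly, cells in 96-well plates were exposed to five compound concentrations for 48 h, and endpoints were estimated by linear interpolation. GI50 = concentration required for 50% inhibition of growth.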 Activity calls are given as the source filed them. No stated cut-off is given here; in the data, active = GI50 up to about 1.1 µM and inactive = higher.

Assays:
Test in all cases: NCI tumour cell line growth inhibition, 48 h
COLO 205 = test system: COLO 205
786-0 = test system: 786-0
CCRF-CEM = test system: CCRF-CEM
MDA-MB-435 = test system: MDA-MB-435
SK-MEL-2 = test system: SK-MEL-2
SK-OV-3 = test system: SK-OV-3
SNB-75 = test system: SNB-75
Hs-578T = test system: Hs-578T
A498 = test system: A498
Malme-3M = test system: Malme-3M
M14 = test system: M14
MDA-MB-231 = test system: MDA-MB-231
CAKI-1 = test system: CAKI-1
BT-549 = test system: BT-549
OVCAR-5 = test system: OVCAR-5
NCI-H226 = test system: NCI-H226
NCI/ADR-RES = test system: NCI/ADR-RES
OVCAR-3 = test system: OVCAR-3
SF-539 = test system: SF-539
DU-145 = test system: DU-145
UACC-257 = test system: UACC-257
LOX IMVI = test system: LOX IMVI
UO-31 = test system: UO-31
HCC 2998 = test system: HCC 2998
HOP-62 = test system: HOP-62
SK-MEL-28 = test system: SK-MEL-28
TK-10 = test system: TK-10
SNB-19 = test system: SNB-19
UACC-62 = test system: UACC-62
HT-29 = test system: HT-29
SW-620 = test system: SW-620
T47D = test system: T47D
HCT-116 = test system: HCT-116
MDA-N = test system: MDA-N
NCI-H522 = test system: NCI-H522
MOLT-4 = test system: MOLT-4
EKVX = test system: EKVX
U-251 = test system: U-251
K562 = test system: K562
IGROV-1 = test system: IGROV-1
HCT-15 = test system: HCT-15
SF-295 = test system: SF-295
PC-3 = test system: PC-3
RPMI-8226 = test system: RPMI-8226
OVCAR-8 = test system: OVCAR-8
MCF7 = test system: MCF7
KM12 = test system: KM12
HOP-92 = test system: HOP-92
NCI-H23 = test system: NCI-H23
SN12C = test system: SN12C
SK-MEL-5 = test system: SK-MEL-5
A549 = test system: A549
HL-60 = test system: HL-60
ACHN = test system: ACHN
SF-268 = test system: SF-268
SR = test system: SR
OVCAR-4 = test system: OVCAR-4
NCI-H460 = test system: NCI-H460
RXF 393 = test system: RXF 393

For `CC(C)/C(=N\[N+](C)(C)C)c1ccccc1`, the GI50 (COLO 205) was > 100 µM (inactive), the GI50 (786-0) was > 100 µM (inactive) and the GI50 (CCRF-CEM) was > 100 µM (inactive). The GI50 (MDA-MB-435) was > 100 µM (inactive), the GI50 (SK-MEL-2) was > 100 µM (inactive) and the GI50 (SK-OV-3) was > 100 µM (inactive). The GI50 (SNB-75) was > 100 µM (inactive), the GI50 (Hs-578T) was > 100 µM (inactive) and the GI50 (A498) was > 100 µM (inactive). For the same compound, the GI50 (Malme-3M) was > 100 µM (inactive), the GI50 (M14) was > 100 µM (inactive) and the GI50 (MDA-MB-231) was > 100 µM (inactive). The GI50 (CAKI-1) was > 100 µM (inactive), the GI50 (BT-549) was > 100 µM (inactive) and the GI50 (OVCAR-5) was > 100 µM (inactive). For the same compound, the GI50 (NCI-H226) was > 100 µM (inactive), the GI50 (NCI/ADR-RES) was > 100 µM (inactive) and the GI50 (OVCAR-3) was > 100 µM (inactive). The GI50 (SF-539) was > 100 µM (inactive), the GI50 (DU-145) was > 100 µM (inactive) and the GI50 (UACC-257) was > 100 µM (inactive). The GI50 (LOX IMVI) was > 100 µM (inactive), the GI50 (UO-31) was > 100 µM (inactive) and the GI50 (HCC 2998) was > 100 µM (inactive). The GI50 (HOP-62) was > 100 µM (inactive), the GI50 (SK-MEL-28) was > 100 µM (inactive) and the GI50 (TK-10) was > 100 µM (inactive). The GI50 (SNB-19) was > 100 µM (inactive), the GI50 (UACC-62) was > 100 µM (inactive) and the GI50 (HT-29) was > 100 µM (inactive). For the same compound, the GI50 (SW-620) was > 100 µM (inactive), the GI50 (T47D) was > 100 µM (inactive) and the GI50 (HCT-116) was > 100 µM (inactive). For the same compound, the GI50 (MDA-N) was > 100 µM (inactive), the GI50 (NCI-H522) was > 100 µM (inactive) and the GI50 (MOLT-4) was > 100 µM (inactive). The GI50 (EKVX) was > 100 µM (inactive), the GI50 (U-251) was > 100 µM (inactive) and the GI50 (K562) was > 100 µM (inactive). The GI50 (IGROV-1) was > 100 µM (inactive), the GI50 (HCT-15) was over 100 µM and the GI50 (SF-295) was > 100 µM (inactive). For the same compound, the GI50 (PC-3) was > 100 µM (inactive), the GI50 (RPMI-8226) was > 100 µM (inactive) and the GI50 (OVCAR-8) was > 100 µM (inactive). The GI50 (MCF7) was > 100 µM (inactive), the GI50 (KM12) was > 100 µM (inactive) and the GI50 (HOP-92) was 69.3 µM (inactive). For the same compound, the GI50 (NCI-H23) was > 100 µM (inactive), the GI50 (SN12C) was > 100 µM (inactive) and the GI50 (SK-MEL-5) was > 100 µM (inactive). The GI50 (A549) was > 100 µM (inactive), the GI50 (HL-60) was > 100 µM (inactive) and the GI50 (ACHN) was > 100 µM (inactive). The GI50 (SF-268) was > 100 µM (inactive), the GI50 (SR) was > 100 µM (inactive) and the GI50 (OVCAR-4) was > 100 µM (inactive). For the same compound, the GI50 (NCI-H460) was > 100 µM (inactive) and the GI50 (RXF 393) was > 100 µM (inactive).
